Key:
Assay in all cases: relative viability (nuclei count vs DMSO), 5 days (fraction); higher = more cells survive
[1] = compound: CC[C@@H]1C(=O)N(C)c2cnc(Nc3ccc(C(=O)NC4CCN(C)CC4)cc3OC)nc2N1C1CCCC1 [BI-2536] + C[C@@H](Oc1cc(-c2cnn(C3CCNCC3)c2)cnc1N)c1c(Cl)ccc(F)c1Cl [Crizotinib] (partner 1 µM)
How it was run: (§1)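 Medians of duplicate plates are given as relative viability. That measure is the nuclei count in treated wells divided by the count in vehicle wells. Counts were taken on 4× images of lung cancer cell lines in 1536-well plates, 5 days after pin-tool dosing the day after seeding with one drug alone or a fixed anchor-drug dose plus five library-drug doses (not always all listed) in √10 steps.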

[2] = compound: CC1CC(=O)N(C2=CN=C(N=C2N1C3CCCC3)NC4=C(C=C(C=C4)C(=O)NC5CCN(CC5)C)OC)C [NPK76-II-72-1] + O=C(c1cc(Cc2n[nH]c(=O)c3ccccc23)ccc1F)N1CCN(C(=O)C2CC2)CC1 [Olaparib] (partner 8 µM)
How it was run: as §1

[3] = compound: CC[C@@H]1C(=O)N(C)c2cnc(Nc3ccc(C(=O)NC4CCN(C)CC4)cc3OC)nc2N1C1CCCC1 [BI-2536] + COc1cc2c(Oc3ccc(NC(=O)C4(C(=O)Nc5ccc(F)cc5)CC4)cc3F)ccnc2cc1OCCCN1CCOCC1 [Foretinib] (partner 0.25 µM)
How it was run: as §1

[4] = compound: CC1CC(=O)N(C2=CN=C(N=C2N1C3CCCC3)NC4=C(C=C(C=C4)C(=O)NC5CCN(CC5)C)OC)C [NPK76-II-72-1] + NC(=O)Nc1cc(-c2cccc(F)c2)sc1C(=O)N[C@H]1CCCNC1 [AZD7762] (partner 0.2 µM)
How it was run: as §1

Row | Cell Line | relative viability ([1]; first compound 0.01 µM) | relative viability ([1]; first compound 0.03162 µM) | relative viability ([1]; first compound 0.3162 µM) | relative viability ([1]; first compound 1 µM) | relative viability ([2]; first compound 0.01 µM) | relative viability ([2]; first compound 0.03162 µM) | relative viability ([2]; first compound 0.1 µM) | relative viability ([2]; first compound 0.3162 µM) | relative viability ([2]; first compound 1 µM) | relative viability ([3]; first compound 0.01 µM) | relative viability ([3]; first compound 0.03162 µM) | relative viability ([3]; first compound 0.1 µM) | relative viability ([3]; first compound 0.3162 µM) | relative viability ([3]; first compound 1 µM) | relative viability ([4]; first compound 0.01 µM) | relative viability ([4]; first compound 0.03162 µM) | relative viability ([4]; first compound 0.1 µM) | relative viability ([4]; first compound 0.3162 µM) | relative viability ([4]; first compound 1 µM) | relative viability ([1]; first compound 0.1 µM)
1 | EPLC-272H | 0.901 | 0.577 | 0.0723 | 0.093 | 0.831 | 0.825 | 0.782 | 0.732 | 0.765 | 0.715 | 0.0998 | 0.0735 | 0.0644 | 0.0639 | 0.183 | 0.207 | 0.22 | 0.254 | 0.208 | –
2 | H3255 | 0.909 | 0.763 | 0.196 | 0.24 | 0.531 | 0.552 | 0.561 | 0.483 | 0.592 | 0.769 | 1.03 | 0.49 | 0.261 | 0.218 | 0.841 | 0.815 | 0.959 | 0.655 | 0.988 | 0.515
3 | HARA | 1.03 | 1.07 | 0.139 | 0.196 | 0.888 | 0.756 | 0.76 | – | 0.872 | 0.97 | 1.07 | 0.746 | 0.0569 | 0.0893 | 0.292 | 0.464 | 0.297 | – | 0.451 | 0.636
4 | HCC-15 | 0.82 | 0.64 | 0.134 | 0.118 | 0.679 | 0.766 | 0.639 | 0.689 | 0.741 | 0.854 | 0.648 | 0.361 | 0.137 | 0.143 | 1.18 | 1.32 | 0.549 | 1.16 | 1.23 | 0.426
5 | HCC-78 | 0.368 | 0.288 | 0.18 | 0.159 | 0.86 | 0.872 | 0.476 | 0.869 | 0.85 | 0.554 | 0.505 | 0.534 | 0.402 | 0.226 | 0.634 | 0.574 | 0.593 | 0.521 | 0.755 | 0.347
6 | HCC-366 | 0.528 | 0.49 | 0.0121 | 0.0124 | 0.328 | 0.374 | 0.469 | 0.39 | 0.366 | 0.959 | 0.847 | 0.225 | 0.0291 | 0.0206 | 0.233 | 0.388 | 0.375 | 0.246 | 0.468 | 0.369
7 | HCC-827 | 0.926 | 0.968 | 0.328 | 0.305 | 0.615 | 0.649 | 0.66 | 0.608 | 0.619 | 1.03 | 0.958 | 0.86 | 0.254 | 0.234 | 0.2 | 0.203 | 0.243 | 0.129 | 0.259 | 0.714
8 | HOP-62 | 0.986 | 0.949 | 0.134 | 0.12 | 0.389 | 0.351 | 0.466 | – | 0.465 | 1.19 | 1.05 | 0.767 | 0.182 | 0.146 | 0.405 | 0.507 | 0.556 | 0.444 | 0.514 | 0.78
9 | LC-2-ad | 0.41 | 0.272 | 0.217 | 0.286 | 0.673 | 0.72 | 0.702 | 0.704 | 0.683 | 0.909 | 0.386 | 0.289 | 0.285 | 0.322 | 0.833 | 0.855 | 0.852 | 0.879 | 0.895 | 0.205
10 | LCLC-97TM1 | 0.249 | 0.303 | 0.168 | 0.105 | 0.357 | 0.394 | 0.346 | 0.249 | 0.424 | 0.958 | 0.91 | 0.637 | 0.149 | 0.179 | 0.298 | 0.404 | 0.27 | – | 0.298 | 0.2
11 | LCLC-103H | 1.11 | 0.986 | 0.39 | 0.154 | – | 0.744 | 0.74 | 0.796 | 0.759 | 0.802 | 0.854 | 0.618 | 0.161 | 0.153 | – | 0.851 | 0.789 | 0.852 | 0.745 | 1.08
12 | LK-2 | 0.245 | 0.237 | 0.177 | 0.245 | 0.775 | 0.716 | 0.679 | 0.565 | 0.725 | 1.32 | 0.923 | 0.861 | 0.18 | 0.162 | 0.367 | 0.42 | 0.439 | 0.323 | 0.379 | 0.202
13 | LOU-NH91 | 0.697 | 0.671 | 0.325 | 0.307 | 0.906 | 0.926 | 0.893 | 0.785 | 0.991 | 0.987 | 0.861 | 0.857 | 0.363 | 0.273 | 0.728 | 0.744 | 0.723 | 0.675 | 0.798 | 0.719
14 | LU99A | 0.527 | 0.526 | 0.212 | 0.184 | 0.259 | 0.244 | 0.297 | 0.253 | 0.285 | 0.716 | 0.812 | 0.329 | 0.222 | 0.175 | 0.425 | 0.298 | 0.503 | 0.248 | 0.402 | 0.218
15 | LXF-289 | 0.822 | 0.693 | 0.0566 | 0.0678 | 0.966 | 1.07 | 1.05 | 1.04 | 1.07 | 1.03 | 0.826 | 0.613 | 0.0393 | 0.0552 | 1.07 | 1.12 | 0.992 | 1.1 | 1.08 | 0.456
16 | NCI-H23 | 0.622 | 0.398 | 0.146 | 0.141 | 0.228 | 0.29 | 0.316 | 0.255 | 0.354 | 0.954 | 0.813 | 0.229 | 0.153 | 0.162 | 0.249 | 0.246 | 0.292 | 0.286 | 0.319 | 0.426

Source: the supplement of paper PMC10307832
